In general, EC50 refers to the concentration needed to bring the measured effect to its halfway point.

The target in this experiment is human NAMPT (Homo sapiens (Human), UniProt P43490). As to the kind of experiment: NMN fluorescence biochemical assay (human recombinant NAMPT enzyme assay). The gist of the method: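 Activation of recombinant human NAMPT (6 nM) was tested with 2.5 mM ATP, 20 μM PRPP and 150 μM nicotinamide in 50 mM HEPES pH 7.2 for 60 min at ambient temperature. NMN was derivatized with acetophenone/KOH/formic acid and read by fluorescence (355/460 nm) after 40 min.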
human NAMPT, sequence (P43490 whole entry): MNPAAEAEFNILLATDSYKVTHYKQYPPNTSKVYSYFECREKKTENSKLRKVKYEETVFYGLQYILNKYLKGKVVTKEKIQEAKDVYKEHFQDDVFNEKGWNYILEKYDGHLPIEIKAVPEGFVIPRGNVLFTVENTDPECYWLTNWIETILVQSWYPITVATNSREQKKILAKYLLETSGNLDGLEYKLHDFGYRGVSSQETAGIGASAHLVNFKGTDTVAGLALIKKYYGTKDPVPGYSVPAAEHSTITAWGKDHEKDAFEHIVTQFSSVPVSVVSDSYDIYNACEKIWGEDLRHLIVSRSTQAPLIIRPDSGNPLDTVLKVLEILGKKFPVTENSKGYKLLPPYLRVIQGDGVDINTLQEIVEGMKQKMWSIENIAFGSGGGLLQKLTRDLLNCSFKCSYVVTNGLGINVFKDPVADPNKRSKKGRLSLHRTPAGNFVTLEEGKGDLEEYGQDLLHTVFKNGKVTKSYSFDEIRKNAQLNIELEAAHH

Turning to `O=C(Cc1ccc(NC(=O)OCc2ccc(Cl)cc2)cc1)Nc1cncc(F)c1` [Compound 273, (4-chlorophenyl)methyl N-(4-{[(5-fluoropyridin-3-yl)carbamoyl]methyl}phenyl)carbamate], the “AC1.4 Human” value was 3.21 µM and the EC50 amounted to 14.4 µM.

For `O=C(Nc1ccc(CNC(=O)c2ccc(F)cn2)cc1)OCc1ccc(Cl)cc1` [Compound 305, (4-chlorophenyl)methyl N-(4-{[(5-fluoropyridin-2-yl)formamido]methyl}phenyl)carbamate], the “AC1.4 Human” value came to 4.95 µM and the EC50 turned out to be 22.9 µM.

`CC(C)C(=O)N1CC2(CC(c3ccc(NC(=O)OCc4cnco4)cc3)C2)C1` [Compound 357, oxazol-5-ylmethyl (4-(2-isobutyryl-2-azaspiro[3.3]heptan-6-yl)phenyl)carbamate]: the “AC1.4 Human” value is 1.09 µM and the EC50 worked out at 39.9 µM.

In the case of `CN(C)C(=O)N1CCC(c2ccc(NC(=O)OCc3cnco3)cc2)CC1` [Compound 4, oxazol-5-ylmethyl (4-(1-(dimethylcarbamoyl)piperidin-4-yl)phenyl)carbamate], the “AC1.4 Human” value came to 0.06 µM and the EC50 was 21.8 µM.

For `CN(C)S(=O)(=O)N1CCC[C@@H](c2ccc(NC(=O)OCc3cnco3)cc2)C1` [Compound 384, oxazol-5-ylmethyl (S)-(4-(1-(N,N-dimethylsulfamoyl)piperidin-3-yl)phenyl)carbamate], the “AC1.4 Human” value was 0.24 µM and the EC50 amounted to 23.3 µM.

On to `O=C(Nc1ccc(Cc2ccccn2)cc1)OCc1ccc(Cl)cc1` [Compound 233, 4-chlorobenzyl (4-(pyridin-2-ylmethyl)phenyl)carbamate], for which the “AC1.4 Human” value stood at 2.18 µM and the EC50 is 7.8 µM.

Regarding `C[C@H](NC(=O)c1cccnc1)c1ccc(NC(=O)OCc2ccc(Cl)cc2)cc1` [Compound 118, (4-chlorophenyl)methyl N-{4-[(1S)-1-(pyridin-3-ylformamido)ethyl]phenyl}carbamate], the “AC1.4 Human” value amounted to 0.95 µM and the EC50 amounted to 3.13 µM.

With `Cc1ccc(C(=O)NCc2ccc(NC(=O)OCc3cnco3)cc2)cn1` [Compound 25, oxazol-5-ylmethyl (4-((6-methylnicotinamido)methyl)phenyl)carbamate], the “AC1.4 Human” value came out at 0.35 µM and the EC50 stood at 7.8 µM.

`CC(O)(c1ccncc1)c1ccc(NC(=O)OCc2ccc(Cl)cc2)cc1` (stereo not shown) [Compound 247, 4-chlorobenzyl (4-(1-hydroxy-1-(pyridin-4-yl)ethyl)phenyl)carbamate]: the “AC1.4 Human” value is 2.45 µM and the EC50 stood at 16.5 µM.

For `CC(=O)N1CCOC(c2ccc(NC(=O)OCc3ccc(Cl)cc3)cc2)C1` (stereo not shown) [Compound 281, (4-chlorophenyl)methyl N-[4-(4-acetylmorpholin-2-yl)phenyl]carbamate], the “AC1.4 Human” value amounted to 3.56 µM and the EC50 stood at 46.9 µM.

Consider `CS(=O)(=O)C1CN(Cc2ccc(NC(=O)OCc3ccc(Cl)cc3)cc2)C1` [Compound 222, (4-chlorophenyl)methyl N-{4-[(3-methanesulfonylazetidin-1-yl)methyl]phenyl}carbamate], for which the “AC1.4 Human” value came to 2.05 µM and the EC50 was determined as 27.6 µM.

`CC(=O)N1CC2(CC(c3ccc(NC(=O)OCc4cnco4)cc3F)C2)C1` [Compound 401, oxazol-5-ylmethyl (4-(2-acetyl-2-azaspiro[3.3]heptan-6-yl)-3-fluorophenyl)carbamate]: the “AC1.4 Human” value turned out to be 0.04 µM and the EC50 came to 3.37 µM.

As for `CC(C)Cn1nccc1C(=O)N[C@@H](C)c1ccc(NC(=O)OCc2ccc(Cl)cc2)cc1` [Compound 129, (4-chlorophenyl)methyl N-{4-[(1S)-1-{[2-(2-methylpropyl)pyrazol-3-yl]formamido}ethyl]phenyl}carbamate], the “AC1.4 Human” value is 1.03 µM and the EC50 turned out to be 2.22 µM.

For the compound `CC(C)C(=O)N1CCC(c2ccc(NC(=O)OCc3cnco3)cc2)CC1` [Compound 7, 1,3-oxazol-5-ylmethyl N-{4-[1-(2-methylpropanoyl)piperidin-4-yl]phenyl}carbamate], the “AC1.4 Human” value was 0.11 µM and the EC50 was 20.8 µM.

Take `Cc1ocnc1C(=O)N(C)Cc1ccc(NC(=O)OCc2ccc(Cl)cc2)cc1` [Compound 340, (4-chlorophenyl)methyl N-(4-{[N-methyl-1-(5-methyl-1,3-oxazol-4-yl)formamido]methyl}phenyl)carbamate]: the “AC1.4 Human” value was 10.65 µM and the EC50 was found to be 45.6 µM.

With `Cc1cnoc1C(=O)N[C@@H](C)c1ccc(NC(=O)OCc2ccc(Cl)cc2)cc1` [Compound 142, (4-chlorophenyl)methyl N-{4-[(1S)-1-[(4-methyl-1,2-oxazol-5-yl)formamido]ethyl]phenyl}carbamate], the “AC1.4 Human” value was determined as 1.17 µM and the EC50 worked out at 7.35 µM.

Take `CN(C)S(=O)(=O)N1C2CCC1CC(Cc1ccc(NC(=O)OCc3cnco3)cc1)C2` (stereo not shown) [Compound 405, oxazol-5-ylmethyl (4-((8-(N,N-dimethylsulfamoyl)-8-azabicyclo[3.2.1]octan-3-yl)methyl)phenyl)carbamate]: the “AC1.4 Human” value was found to be 0.11 µM and the EC50 is 3.42 µM.

In the case of `Cc1ncccc1C(=O)NCc1ccc(NC(=O)OCc2ccc(Cl)cc2)cc1` [Compound 192, (4-chlorophenyl)methyl N-(4-{[(2-methylpyridin-3-yl)formamido]methyl}phenyl)carbamate], the “AC1.4 Human” value amounted to 1.70 µM and the EC50 worked out at 6.45 µM.

Consider `Cc1noc(C(=O)N[C@@H](C)c2ccc(NC(=O)OCc3ccc(Cl)cc3)cc2)c1C` [Compound 46, 4-chlorobenzyl (S)-(4-(1-(3,4-dimethylisoxazole-5-carboxamido)ethyl)phenyl)carbamate], for which the “AC1.4 Human” value turned out to be 0.48 µM and the concentration giving a half-maximal response (EC50) was 2.58 µM.

For `COC(=O)N1CCC(c2ccc(NC(=O)OCc3cnco3)cc2F)CC1` [Compound 417, methyl 4-(2-fluoro-4-(((oxazol-5-ylmethoxy)carbonyl)amino)phenyl)piperidine-1-carboxylate], the “AC1.4 Human” value amounted to 0.18 µM and the EC50 worked out at 27 µM.

As to `O=C(Nc1ccc(CC(=O)N2CCC[C@H]2CO)cc1)OCc1ccc(Cl)cc1` [Compound 202, (4-chlorophenyl)methyl N-(4-{2-[(2S)-2-(hydroxymethyl)pyrrolidin-1-yl]-2-oxoethyl}phenyl)carbamate], the “AC1.4 Human” value is 1.82 µM and the EC50 is 24.5 µM.

Turning to `Cc1noc(C(=O)N(C)Cc2ccc(NC(=O)OCc3ccc(Cl)cc3)cc2)c1C` [Compound 190, (4-chlorophenyl)methyl N-(4-{[1-(3,4-dimethyl-1,2-oxazol-5-yl)-N-methylformamido]methyl}phenyl)carbamate], the “AC1.4 Human” value worked out at 1.64 µM and the EC50 turned out to be 9 µM.

Regarding `CN1CC(=O)NC[C@@H]1c1ccc(NC(=O)OCc2ccc(Cl)cc2F)cc1` [Compound 81, 4-chloro-2-fluorobenzyl (S)-(4-(1-methyl-5-oxopiperazin-2-yl)phenyl)carbamate], the “AC1.4 Human” value came to 0.66 µM and the EC50 is 3.41 µM.

Take `O=C(Cc1ccc(NC(=O)OCc2ccc(Cl)cc2)cc1)NCc1cnccn1` [Compound 300, (4-chlorophenyl)methyl N-(4-{[(pyrazin-2-ylmethyl)carbamoyl]methyl}phenyl)carbamate]: the “AC1.4 Human” value came to 4.81 µM and the EC50 is 26.4 µM.

Consider `CN(Cc1ccc(NC(=O)OCc2ccc(Cl)cc2)cc1)C(=O)c1ccnn1C1CCC1` [Compound 74, (4-chlorophenyl)methyl N-(4-{[1-(2-cyclobutylpyrazol-3-yl)-N-methylformamido]methyl}phenyl)carbamate], for which the “AC1.4 Human” value amounted to 0.64 µM and the EC50 came to 1.42 µM.

`CCS(=O)(=O)N1CCC(Cc2ccc(NC(=O)OCc3cnco3)cc2)CC12CC2` (stereo not shown) [Compound 418, oxazol-5-ylmethyl (4-((4-(ethylsulfonyl)-4-azaspiro[2.5]octan-7-yl)methyl)phenyl)carbamate]: the “AC1.4 Human” value turned out to be 0.18 µM and the EC50 came to 5.97 µM.

Consider `COc1ccc(C(=O)NCc2ccc(NC(=O)OCc3ccc(Cl)cc3)cc2)cn1` [Compound 158, (4-chlorophenyl)methyl N-(4-{[(6-methoxypyridin-3-yl)formamido]methyl}phenyl)carbamate], for which the “AC1.4 Human” value was determined as 1.32 µM and the EC50 was 1.27 µM.

As for `Cc1nocc1C(=O)N[C@@H](C)c1ccc(NC(=O)OCc2ccc(Cl)cc2)cc1` [Compound 150, (4-chlorophenyl)methyl N-{4-[(1S)-1-[(3-methyl-1,2-oxazol-4-yl)formamido]ethyl]phenyl}carbamate], the “AC1.4 Human” value is 1.24 µM and the EC50 amounted to 4.31 µM.

Regarding `COC1CCN(C(=O)Cc2ccc(NC(=O)OCc3ccc(Cl)cc3)cc2)CC1` [Compound 283, (4-chlorophenyl)methyl N-{4-[2-(4-methoxypiperidin-1-yl)-2-oxoethyl]phenyl}carbamate], the “AC1.4 Human” value came to 3.61 µM and the EC50 was determined as 47.9 µM.

Turning to `O=C(Nc1ccc(CC(=O)N2CCCC[C@@H]2CO)cc1)OCc1ccc(Cl)cc1` [Compound 287, (4-chlorophenyl)methyl N-(4-{2-[(2R)-2-(hydroxymethyl)piperidin-1-yl]-2-oxoethyl}phenyl)carbamate], the “AC1.4 Human” value is 3.81 µM and the EC50 came to 20.6 µM.

`O=C(Nc1ccc(Cc2cncs2)cc1)OCc1ccc(Cl)cc1` [Compound 351, 4-chlorobenzyl (4-(thiazol-5-ylmethyl)phenyl)carbamate]: the “AC1.4 Human” value worked out at 22.18 µM and the EC50 was 37.3 µM.

Take `CN(C)C(=O)N1CCC(Cc2ccc(NC(=O)OCc3cnco3)cc2)CC1` [Compound 30, oxazol-5-ylmethyl (4-((1-(dimethylcarbamoyl)piperidin-4-yl)methyl)phenyl)carbamate]: the “AC1.4 Human” value was 0.37 µM and the EC50 is 25.1 µM.
